Test results taken from patent publication EP4737445A1, “NOVEL SATURATED HETEROCYCLE-SUBSTITUTED HETEROARYL-CARBONOHYDRAZONOYL DICYANIDE COMPOUND AND USE THEREOF” (Korea Institute of Science and Technology, priority 2023, dated 2025).

Legend:
Assay type in all cases: in vivo
TauP301L-BiFC Tg mice [1] = assay: Novel Objective Recognition test in tau transgenic mice; settings: oral 10 mg/kg, 5 times per week, 19 weeks, Vehicle = 0.48
Method: (§1) Compounds 6, 16, and 20 were orally administered to 8.2-month-old tau transgenic animal model (TauP301L-BiFC tg mouse) 5 times per week at a concentration of 10 mg/kg for a total of 19 weeks (n=10/group). WT mice of similar age to the vehicle-treated group of TauP301L-BiFC mice were used as a control group. Three types of behavioral experiments (Novel Objective Recognition test, Y-maze test, Balance beam test) were performed to confirm the improvement effects on cognitive function and motor function by drug administration, and these experiments and their results were as follows. • (1) Novel Objective Recognition test: To evaluate the object recognition memory ability of mice, two identical objects (Old-Old) were explored for 10 minutes in a 40 cm × 40 cm box. The next day, one object was replaced with a new object (Old-New) and exploration was performed again for 10 minutes, and then the time showing exploratory behavior toward the existing object and the new object was measured. Mice with normal object recognition ability (Recognition index) spent more time exploring the newly changed object, whereas mice with low object recognition ability could not distinguish the new object. The object recognition ability (Recognition index) values were as follows: (RI, Vehicle= 0.48, n.s., #20= 0.59, p<0.05, #6= 0.66, p<0.0001, #16= 0.58, p<0.05). In TauP301L-BiFC mice, the object recognition function improvement effect by drugs #20, #6, and #16 compared to the vehicle group was confirmed. • (2) Y-maze test: A Y-maze test was performed to evaluate the spatial working memory ability of mice. Whether the mice entered the three arms of the Y-maze by spontaneous alternation behavior for a certain period of time was measured through video recording. An increase in the spontaneous alternation ratio was considered as improved working memory ability. […] The time taken to cross a rod with a height of 50 cm and length of 80 cm and the number of times the feet went outside the rod during crossing were measured. […]

TauP301L-BiFC Tg mice [2] = assay: Y-maze test in tau transgenic mice; settings: oral 10 mg/kg, 5 times per week, 19 weeks, vehicle = 60.7%
Method: as §1

tau = target: T1, tau (Homo sapiens, UniProt P10636, P618L); assay: Tau-BiFC fluorescence imaging of brain tissue (tau oligomer/aggregate formation); settings: TauP301L-BiFC mice; oral 10 mg/kg, 19 weeks; vehicle = 100%
T1 construct: BiFC fluorescent-protein fragments (two complementary halves); from tissue; host or cells: brain of TauP301L-BiFC transgenic mice
T1 sequence (P10636 1-441 isoform P10636-8 P301L): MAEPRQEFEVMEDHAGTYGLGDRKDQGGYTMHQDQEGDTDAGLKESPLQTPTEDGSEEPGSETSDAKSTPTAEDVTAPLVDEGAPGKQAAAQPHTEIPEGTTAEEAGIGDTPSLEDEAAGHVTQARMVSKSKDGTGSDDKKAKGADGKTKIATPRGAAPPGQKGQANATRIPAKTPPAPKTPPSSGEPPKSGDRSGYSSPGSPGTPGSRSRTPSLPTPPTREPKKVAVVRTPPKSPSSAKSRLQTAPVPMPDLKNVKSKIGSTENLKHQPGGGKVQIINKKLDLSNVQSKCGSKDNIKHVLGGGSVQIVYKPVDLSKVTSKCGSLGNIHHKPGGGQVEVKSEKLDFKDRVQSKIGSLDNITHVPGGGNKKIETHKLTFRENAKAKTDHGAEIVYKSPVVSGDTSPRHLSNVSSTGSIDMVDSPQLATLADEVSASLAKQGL
Method: After oral administration of Compounds 6, 16, and 20 and completion of behavioral experiments, 13.2-month-old TauP301L-BiFC mice were sacrificed to proceed with brain tissue extraction and [2] brain lysate separation and purification. • [1] First, brain tissue extraction, BiFC fluorescence imaging of brain tissue, and tau phosphorylation antibody immunofluorescence were performed through the following process. TauP301L-BiFC mice were perfused with 0.9% saline and fixed with PBS (pH 7.4) solution containing 4% paraformaldehyde. The brain was extracted and fixed in PBS containing 4% paraformaldehyde at 4°C for 48 to 72 hours. For cryoprotection, the brain was transferred to PBS containing 30% sucrose solution and stored at 4°C until it sank. For frozen sectioning, the brain was immersed in O.C.T (Tissue-TEK) and frozen, and then continuously cut using a brain tissue sectioner. Tissue sections with a thickness of 30 µm were stored in PBS containing 0.05% sodium azide at 4°C.
Brain tissue sections (n=10 per group) were placed on slides, stained with Sudan Black B solution (70% ethanol containing 0.05% Sudan Black B) for 10 minutes to reduce autofluorescence, washed 3 times with PBS containing 0.1% Triton X-100, and then washed with distilled water. For nuclear staining, brain tissue sections were stained with Hoechst (0.5 µg/mL) for 30 minutes. BiFC fluorescence (λex=460-490 nm and λem=500-550 nm) images were acquired using Axio Scan.Z1 (ZEISS). For quantitative analysis, the average BiFC-fluorescence intensity was measured in the somatosensory cortex (layer V) and hippocampus CA1, and the habenular region was used as a control region to reduce background fluorescence differences between brain samples. ImageJ software (NIH) was used to mark regions of interest and calculate fluorescence intensity values, and the data were expressed as the average fluorescence intensity and standard deviation of brain tissue images from 10 mice per group.
As a result of Tau-BiFC fluorescence imaging of four regions of total brain tissue (hippocampus (CA1), somatosensory cortex, cerebellum, brainstem), the degree of Tau-BiFC fluorescence appearing as tau aggregation early oligomer formation and aggregate formation was as follows: • (1) Hippocampus (CA1), vehicle = 100%, #20= 79%, p<0.05, #6= 80%, p<0.05, #16= 72%, p<0.001. • (2) Sensory cortex (SCTX), vehicle = 100%, #20= 72%, p<0.05, #6= 73%, p<0.05, #16= 66%, p<0.01. • (3) Cerebellum (CB), vehicle = 100%, #20= 64%, p<0.05, #6= 68%, ns, #16= 76%, n.s. • (4) Brain stem, vehicle = 100%, #20= 60%, p<0.05, #6= 62%, p<0.05, #16= 60%, p<0.05.

In the case of Cn1c(N2CCOCC2)nc2cc(NN=C(C#N)C#N)ccc21 [Compound 6, (1-methyl-2-morpholino-1H-benzo[d]imidazol-5-yl)carbonohydrazonoyl dicyanide], the “object recognition ability (Recognition index, RI)” value (TauP301L-BiFC Tg mice [1]) was 0.66, the “spontaneous alternation ratio (Alteration ratio (%))” value (TauP301L-BiFC Tg mice [2]) was 71.1% and the “Tau-BiFC fluorescence, Brain stem” value (tau) was 62%. For the same compound, the “Tau-BiFC fluorescence, Cerebellum (CB)” value (tau) was 68%, the “Tau-BiFC fluorescence, Hippocampus (CA1)” value (tau) was 80% and the “Tau-BiFC fluorescence, Sensory cortex (SCTX)” value (“Tau-BiFC fluorescence … (SCTX)” for short) (tau) was 73%.

CC1COCCN1c1nc2ccc(NN=C(C#N)C#N)cc2o1 (stereo not drawn) [Compound 16, (2-(3-methylmorpholino)benzo[d]oxazol-6-yl)carbonohydrazonoyl dicyanide] was tested, and the “object recognition ability (Recognition index, RI)” value (TauP301L-BiFC Tg mice [1]) was 0.58, the “spontaneous alternation ratio (Alteration ratio (%))” value (TauP301L-BiFC Tg mice [2]) was 76.4% and the “Tau-BiFC fluorescence, Brain stem” value (tau) was 60%. The “Tau-BiFC fluorescence, Cerebellum (CB)” value (tau) was 76%, the “Tau-BiFC fluorescence, Hippocampus (CA1)” value (tau) was 72% and the “Tau-BiFC fluorescence … (SCTX)” value (tau) was 66%.

In the case of N#CC(C#N)=NNc1ccc2nc(N3C4CCC3COC4)oc2c1 [Compound 20, (2-(3-oxa-8-azabicyclo[3.2.1]octan-8-yl)benzo[d]oxazol-6-yl)carbonohydrazonoyl dicyanide], the “object recognition ability (Recognition index, RI)” value (TauP301L-BiFC Tg mice [1]) was 0.59, the “spontaneous alternation ratio (Alteration ratio (%))” value (TauP301L-BiFC Tg mice [2]) was 70.8% and the “Tau-BiFC fluorescence, Brain stem” value (tau) was 60%. The “Tau-BiFC fluorescence, Cerebellum (CB)” value (tau) was 64%, the “Tau-BiFC fluorescence, Hippocampus (CA1)” value (tau) was 79% and the “Tau-BiFC fluorescence … (SCTX)” value (tau) was 72%.
